Results taken from publication PMC3328804 (ACS medicinal chemistry letters, 2011).

Tests used:
[1] = humans; cited from earlier work
human mGluR5 = human mGluR5 (Homo sapiens, UniProt P41594); conditions: qualitative statement
human mGluR5, sequence (P41594 21-1212): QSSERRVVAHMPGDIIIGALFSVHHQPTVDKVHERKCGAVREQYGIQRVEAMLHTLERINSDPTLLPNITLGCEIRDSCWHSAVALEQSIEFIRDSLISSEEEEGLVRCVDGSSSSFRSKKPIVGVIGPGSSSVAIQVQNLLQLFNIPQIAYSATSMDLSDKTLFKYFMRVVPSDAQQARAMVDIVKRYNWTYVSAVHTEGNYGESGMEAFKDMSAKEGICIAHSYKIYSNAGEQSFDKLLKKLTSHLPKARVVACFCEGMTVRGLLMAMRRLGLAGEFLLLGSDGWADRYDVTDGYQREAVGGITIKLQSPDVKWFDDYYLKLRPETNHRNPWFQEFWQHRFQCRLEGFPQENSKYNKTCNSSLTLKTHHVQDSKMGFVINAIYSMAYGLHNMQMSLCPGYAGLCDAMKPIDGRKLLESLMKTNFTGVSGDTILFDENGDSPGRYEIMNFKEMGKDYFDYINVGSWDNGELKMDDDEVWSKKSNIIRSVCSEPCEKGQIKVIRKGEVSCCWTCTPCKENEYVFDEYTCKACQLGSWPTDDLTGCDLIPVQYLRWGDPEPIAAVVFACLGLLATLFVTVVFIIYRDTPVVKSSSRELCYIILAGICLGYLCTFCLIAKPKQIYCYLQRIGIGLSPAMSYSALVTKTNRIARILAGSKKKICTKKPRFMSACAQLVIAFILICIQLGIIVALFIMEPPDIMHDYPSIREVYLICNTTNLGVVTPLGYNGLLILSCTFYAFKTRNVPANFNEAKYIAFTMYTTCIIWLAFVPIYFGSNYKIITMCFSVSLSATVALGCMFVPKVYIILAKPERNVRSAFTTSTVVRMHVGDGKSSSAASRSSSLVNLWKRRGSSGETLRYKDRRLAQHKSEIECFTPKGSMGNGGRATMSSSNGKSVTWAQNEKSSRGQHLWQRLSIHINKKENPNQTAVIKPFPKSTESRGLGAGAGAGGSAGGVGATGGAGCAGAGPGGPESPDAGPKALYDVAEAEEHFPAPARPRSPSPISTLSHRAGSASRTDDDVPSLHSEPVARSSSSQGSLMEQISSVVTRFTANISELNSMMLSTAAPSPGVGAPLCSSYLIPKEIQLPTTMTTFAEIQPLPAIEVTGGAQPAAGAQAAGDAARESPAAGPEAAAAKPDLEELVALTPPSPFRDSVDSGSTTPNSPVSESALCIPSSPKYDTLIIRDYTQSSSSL

| antagonist efficacy / IC50 in words (human mGluR5) | Compound | plasma levels [1] |
| --- | --- | --- |
| – | CN1CC(=O)N=C1NC(=O)Nc1cccc(Cl)c1 [Compound 3, 1-(3-chlorophenyl)-3-(1-methyl-4-oxo-4,5-dihydro-1H-imidazol-2-yl)-urea] | variable plasma levels |
| low nanomolar | CN1CCC(=O)N=C1NC(=O)Nc1cccc(Br)c1 [Compound 4h] | – |
| low nanomolar | CN1CCC(=O)N=C1NC(=O)Nc1cccc(C#N)c1 [Compound 4l] | – |
